Patent US7118895B2, “Process for producing aglycon by using diglycosidase and flavor-improved food containing the aglycon and converting agent to be used in the process” (Amano Enzyme Inc., priority 2000, dated 2006)

Test system: Crude diglycosidase
Experiment: Examination of pH in the conversion into isoflavone aglycons by diglycosidase using soybean materials
Assay type: biochemical, Penicillium multicolor IAM7153
Set-up: Decomposition efficiency of genistin family in soymilk / Decomposition efficiency of genistin family in defatted soybean / Decomposition efficiency of daidzin family in defatted soybean: concentration or dose not given beside the values
Details: for Decomposition efficiency of genistin family in roasted soy flour: 55° C.
Outline: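 Conversion of glycosides to isoflavone aglycons was followed by HPLC after crude diglycosidase (1.88 AU/mL enzyme solution) acted at 55° C for up to 6 h on four soy materials, 50 mg each, held at pH 2–11.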

[1] = pH4.8, heat treatment of enzyme: no, reaction time 0 h
[2] = pH4.8, heat treatment of enzyme: no, reaction time 1 h
[3] = pH4.8, heat treatment of enzyme: no, reaction time 3 h
[4] = pH4.8, heat treatment of enzyme: no, reaction time 6 h
[5] = pH4.8, heat treatment of enzyme: yes, reaction time 6 h
[6] = pH6.6, heat treatment of enzyme: no, reaction time 0 h
[7] = pH6.6, heat treatment of enzyme: no, reaction time 1 h
[8] = pH6.6, heat treatment of enzyme: no, reaction time 3 h
[9] = pH6.6, heat treatment of enzyme: no, reaction time 6 h
[10] = pH6.6, heat treatment of enzyme: yes, reaction time 6 h

- Decomposition efficiency of genistin family in concentrated soybean protein (pH1.6, heat treatment of enzyme: no, reaction time 0 h): not detected
- Decomposition efficiency of genistin family in concentrated soybean protein (pH1.6, heat treatment of enzyme: no, reaction time 1 h): not detected
- Decomposition efficiency of genistin family in concentrated soybean protein (pH1.6, heat treatment of enzyme: no, reaction time 3 h): not detected
- Decomposition efficiency of genistin family in concentrated soybean protein (pH1.6, heat treatment of enzyme: no, reaction time 6 h): not detected
- Decomposition efficiency of genistin family in concentrated soybean protein (pH1.6, heat treatment of enzyme: yes, reaction time 6 h): not detected
- Decomposition efficiency of genistin family in roasted soy flour (pH2, heat treatment of enzyme no, reaction time 0 h): not detected
- Decomposition efficiency of genistin family in roasted soy flour (pH2, heat treatment of enzyme no, reaction time 1 h): not detected
- Decomposition efficiency of genistin family in roasted soy flour (pH2, heat treatment of enzyme no, reaction time 3 h): not detected
- Decomposition efficiency of genistin family in roasted soy flour (pH2, heat treatment of enzyme no, reaction time 6 h): not detected
- Decomposition efficiency of genistin family in roasted soy flour (pH2, heat treatment of enzyme yes, reaction time 6 h): not detected
- Decomposition efficiency of genistin family in soymilk (pH2.3, heat treatment of enzyme: no, reaction time 0 h): 58.2%
- Decomposition efficiency of genistin family in soymilk (pH2.3, heat treatment of enzyme: no, reaction time 1 h): 57.5%
- Decomposition efficiency of genistin family in soymilk (pH2.3, heat treatment of enzyme: no, reaction time 3 h): 54.1%
- Decomposition efficiency of genistin family in soymilk (pH2.3, heat treatment of enzyme: no, reaction time 6 h): 52.1%
- Decomposition efficiency of genistin family in soymilk (pH2.3, heat treatment of enzyme: yes, reaction time 6 h): 54.3%
- Decomposition efficiency of genistin family in defatted soybean (pH2.6, heat treatment of enzyme: no, reaction time 0 h): 43.8%
- Decomposition efficiency of genistin family in defatted soybean (pH2.6, heat treatment of enzyme: no, reaction time 1 h): 44.4%
- Decomposition efficiency of genistin family in defatted soybean (pH2.6, heat treatment of enzyme: no, reaction time 3 h): 45.4%
- Decomposition efficiency of genistin family in defatted soybean (pH2.6, heat treatment of enzyme: no, reaction time 6 h): 43.5%
- Decomposition efficiency of genistin family in defatted soybean (pH2.6, heat treatment of enzyme: yes, reaction time 6 h): 42.0%
- Decomposition efficiency of genistin family in concentrated soybean protein (pH2.7, heat treatment of enzyme: no, reaction time 0 h): not detected
- Decomposition efficiency of genistin family in concentrated soybean protein (pH2.7, heat treatment of enzyme: no, reaction time 1 h): not detected
- Decomposition efficiency of genistin family in concentrated soybean protein (pH2.7, heat treatment of enzyme: no, reaction time 3 h): not detected
- Decomposition efficiency of genistin family in concentrated soybean protein (pH2.7, heat treatment of enzyme: no, reaction time 6 h): not detected
- Decomposition efficiency of genistin family in concentrated soybean protein (pH2.7, heat treatment of enzyme: yes, reaction time 6 h): not detected
- Decomposition efficiency of genistin family in roasted soy flour (pH3, heat treatment of enzyme no, reaction time 0 h): not detected
- Decomposition efficiency of genistin family in roasted soy flour (pH3, heat treatment of enzyme no, reaction time 1 h): not detected
- Decomposition efficiency of genistin family in roasted soy flour (pH3, heat treatment of enzyme no, reaction time 3 h): not detected
- Decomposition efficiency of genistin family in roasted soy flour (pH3, heat treatment of enzyme no, reaction time 6 h): not detected
- Decomposition efficiency of genistin family in roasted soy flour (pH3, heat treatment of enzyme yes, reaction time 6 h): not detected
- Decomposition efficiency of genistin family in defatted soybean (pH3.4, heat treatment of enzyme: no, reaction time 0 h): 43.8%
- Decomposition efficiency of genistin family in defatted soybean (pH3.4, heat treatment of enzyme: no, reaction time 1 h): 41.6%
- Decomposition efficiency of genistin family in defatted soybean (pH3.4, heat treatment of enzyme: no, reaction time 3 h): 36.4%
- Decomposition efficiency of genistin family in defatted soybean (pH3.4, heat treatment of enzyme: no, reaction time 6 h): 30.4%
- Decomposition efficiency of genistin family in defatted soybean (pH3.4, heat treatment of enzyme: yes, reaction time 6 h): 39.8%
- Decomposition efficiency of genistin family in soymilk (pH3.5, heat treatment of enzyme: no, reaction time 0 h): 58.2%
- Decomposition efficiency of genistin family in soymilk (pH3.5, heat treatment of enzyme: no, reaction time 1 h): 27.9%
- Decomposition efficiency of genistin family in soymilk (pH3.5, heat treatment of enzyme: no, reaction time 3 h): 7.5%
- Decomposition efficiency of genistin family in soymilk (pH3.5, heat treatment of enzyme: no, reaction time 6 h): 2.7%
- Decomposition efficiency of genistin family in soymilk (pH3.5, heat treatment of enzyme: yes, reaction time 6 h): 52.7%
- Decomposition efficiency of genistin family in concentrated soybean protein (pH3.7, heat treatment of enzyme: no, reaction time 0 h): not detected
- Decomposition efficiency of genistin family in concentrated soybean protein (pH3.7, heat treatment of enzyme: no, reaction time 1 h): not detected
- Decomposition efficiency of genistin family in concentrated soybean protein (pH3.7, heat treatment of enzyme: no, reaction time 3 h): not detected
- Decomposition efficiency of genistin family in concentrated soybean protein (pH3.7, heat treatment of enzyme: no, reaction time 6 h): not detected
- Decomposition efficiency of genistin family in concentrated soybean protein (pH3.7, heat treatment of enzyme: yes, reaction time 6 h): not detected
- Decomposition efficiency of genistin family in roasted soy flour (pH4, heat treatment of enzyme no, reaction time 0 h): not detected
- Decomposition efficiency of genistin family in roasted soy flour (pH4, heat treatment of enzyme no, reaction time 1 h): not detected
- Decomposition efficiency of genistin family in roasted soy flour (pH4, heat treatment of enzyme no, reaction time 3 h): not detected
- Decomposition efficiency of genistin family in roasted soy flour (pH4, heat treatment of enzyme no, reaction time 6 h): not detected
- Decomposition efficiency of genistin family in roasted soy flour (pH4, heat treatment of enzyme yes, reaction time 6 h): not detected
- Decomposition efficiency of genistin family in defatted soybean [1]: 43.2%
- Decomposition efficiency of genistin family in soymilk [1]: 58.6%
- Decomposition efficiency of genistin family in defatted soybean [2]: 42.8%
- Decomposition efficiency of genistin family in soymilk [2]: 41.0%
- Decomposition efficiency of genistin family in defatted soybean [3]: 37.5%
- Decomposition efficiency of genistin family in soymilk [3]: 23.9%
- Decomposition efficiency of genistin family in defatted soybean [4]: 31.1%
- Decomposition efficiency of genistin family in soymilk [4]: 11.3%
- Decomposition efficiency of genistin family in defatted soybean [5]: 41.7%
- Decomposition efficiency of genistin family in soymilk [5]: 51.9%
- Decomposition efficiency of genistin family in roasted soy flour (pH5, heat treatment of enzyme no, reaction time 0 h): not detected
- Decomposition efficiency of genistin family in roasted soy flour (pH5, heat treatment of enzyme no, reaction time 1 h): not detected
- Decomposition efficiency of genistin family in roasted soy flour (pH5, heat treatment of enzyme no, reaction time 3 h): not detected
- Decomposition efficiency of genistin family in roasted soy flour (pH5, heat treatment of enzyme no, reaction time 6 h): not detected
- Decomposition efficiency of genistin family in roasted soy flour (pH5, heat treatment of enzyme yes, reaction time 6 h): not detected
- Decomposition efficiency of genistin family in concentrated soybean protein (pH5.1, heat treatment of enzyme: no, reaction time 0 h): not detected
- Decomposition efficiency of genistin family in concentrated soybean protein (pH5.1, heat treatment of enzyme: no, reaction time 1 h): not detected
- Decomposition efficiency of genistin family in concentrated soybean protein (pH5.1, heat treatment of enzyme: no, reaction time 3 h): not detected
- Decomposition efficiency of genistin family in concentrated soybean protein (pH5.1, heat treatment of enzyme: no, reaction time 6 h): not detected
- Decomposition efficiency of genistin family in concentrated soybean protein (pH5.1, heat treatment of enzyme: yes, reaction time 6 h): not detected
- Decomposition efficiency of genistin family in defatted soybean (pH5.4, heat treatment of enzyme: no, reaction time 0 h): 43.2%
- Decomposition efficiency of genistin family in defatted soybean (pH5.4, heat treatment of enzyme: no, reaction time 1 h): 48.0%
- Decomposition efficiency of genistin family in defatted soybean (pH5.4, heat treatment of enzyme: no, reaction time 3 h): 44.6%
- Decomposition efficiency of genistin family in defatted soybean (pH5.4, heat treatment of enzyme: no, reaction time 6 h): 39.7%
- Decomposition efficiency of genistin family in defatted soybean (pH5.4, heat treatment of enzyme: yes, reaction time 6 h): 45.8%
- Decomposition efficiency of genistin family in soymilk (pH6.2, heat treatment of enzyme: no, reaction time 0 h): 58.6%
- Decomposition efficiency of genistin family in soymilk (pH6.2, heat treatment of enzyme: no, reaction time 1 h): 52.6%
- Decomposition efficiency of genistin family in soymilk (pH6.2, heat treatment of enzyme: no, reaction time 3 h): 41.2%
- Decomposition efficiency of genistin family in soymilk (pH6.2, heat treatment of enzyme: no, reaction time 6 h): 35.8%
- Decomposition efficiency of genistin family in soymilk (pH6.2, heat treatment of enzyme: yes, reaction time 6 h): 51.5%
- Decomposition efficiency of genistin family in roasted soy flour (pH6.5, heat treatment of enzyme no, reaction time 0 h): not detected
- Decomposition efficiency of genistin family in roasted soy flour (pH6.5, heat treatment of enzyme no, reaction time 1 h): not detected
- Decomposition efficiency of genistin family in roasted soy flour (pH6.5, heat treatment of enzyme no, reaction time 3 h): not detected
- Decomposition efficiency of genistin family in roasted soy flour (pH6.5, heat treatment of enzyme no, reaction time 6 h): not detected
- Decomposition efficiency of genistin family in roasted soy flour (pH6.5, heat treatment of enzyme yes, reaction time 6 h): not detected
- Decomposition efficiency of genistin family in concentrated soybean protein [6]: not detected
- Decomposition efficiency of genistin family in defatted soybean [6]: 47.1%
- Decomposition efficiency of genistin family in concentrated soybean protein [7]: not detected
- Decomposition efficiency of genistin family in defatted soybean [7]: 50.1%
- Decomposition efficiency of genistin family in concentrated soybean protein [8]: not detected
- Decomposition efficiency of genistin family in defatted soybean [8]: 48.3%
- Decomposition efficiency of genistin family in concentrated soybean protein [9]: not detected
- Decomposition efficiency of genistin family in defatted soybean [9]: 46.1%
- Decomposition efficiency of genistin family in concentrated soybean protein [10]: not detected
- Decomposition efficiency of genistin family in defatted soybean [10]: 45.7%
- Decomposition efficiency of genistin family in soymilk (pH7.2, heat treatment of enzyme: no, reaction time 0 h): 57.0%
- Decomposition efficiency of genistin family in soymilk (pH7.2, heat treatment of enzyme: no, reaction time 1 h): 56.9%
- Decomposition efficiency of genistin family in soymilk (pH7.2, heat treatment of enzyme: no, reaction time 3 h): 51.5%
- Decomposition efficiency of genistin family in soymilk (pH7.2, heat treatment of enzyme: no, reaction time 6 h): 46.4%
- Decomposition efficiency of genistin family in soymilk (pH7.2, heat treatment of enzyme: yes, reaction time 6 h): 51.1%
- Decomposition efficiency of genistin family in defatted soybean (pH7.8, heat treatment of enzyme: no, reaction time 0 h): 45.8%
- Decomposition efficiency of genistin family in defatted soybean (pH7.8, heat treatment of enzyme: no, reaction time 1 h): 46.6%
- Decomposition efficiency of genistin family in defatted soybean (pH7.8, heat treatment of enzyme: no, reaction time 3 h): 44.4%
- Decomposition efficiency of genistin family in defatted soybean (pH7.8, heat treatment of enzyme: no, reaction time 6 h): 42.2%
- Decomposition efficiency of genistin family in defatted soybean (pH7.8, heat treatment of enzyme: yes, reaction time 6 h): 39.9%
- Decomposition efficiency of genistin family in roasted soy flour (pH8.5, heat treatment of enzyme no, reaction time 0 h): not detected
- Decomposition efficiency of genistin family in roasted soy flour (pH8.5, heat treatment of enzyme no, reaction time 1 h): not detected
- Decomposition efficiency of genistin family in roasted soy flour (pH8.5, heat treatment of enzyme no, reaction time 3 h): not detected
- Decomposition efficiency of genistin family in roasted soy flour (pH8.5, heat treatment of enzyme no, reaction time 6 h): not detected
- Decomposition efficiency of genistin family in roasted soy flour (pH8.5, heat treatment of enzyme yes, reaction time 6 h): not detected
- Decomposition efficiency of genistin family in concentrated soybean protein (pH8.6, heat treatment of enzyme: no, reaction time 0 h): not detected
- Decomposition efficiency of genistin family in concentrated soybean protein (pH8.6, heat treatment of enzyme: no, reaction time 1 h): not detected
- Decomposition efficiency of genistin family in concentrated soybean protein (pH8.6, heat treatment of enzyme: no, reaction time 3 h): not detected
- Decomposition efficiency of genistin family in concentrated soybean protein (pH8.6, heat treatment of enzyme: no, reaction time 6 h): not detected
- Decomposition efficiency of genistin family in concentrated soybean protein (pH8.6, heat treatment of enzyme: yes, reaction time 6 h): not detected
- Decomposition efficiency of genistin family in soymilk (pH11.6, heat treatment of enzyme: no, reaction time 0 h): 54.2%
- Decomposition efficiency of genistin family in soymilk (pH11.6, heat treatment of enzyme: no, reaction time 1 h): 57.7%
- Decomposition efficiency of genistin family in soymilk (pH11.6, heat treatment of enzyme: no, reaction time 3 h): 52.6%
- Decomposition efficiency of genistin family in soymilk (pH11.6, heat treatment of enzyme: no, reaction time 6 h): 49.5%
- Decomposition efficiency of genistin family in soymilk (pH11.6, heat treatment of enzyme: yes, reaction time 6 h): 47.7%
Structure (SMILES): O=C(O)CC(=O)OC[C@H]1O[C@@H](Oc2cc(O)c3c(=O)c(-c4ccc(O)cc4)coc3c2)[C@H](O)[C@@H](O)[C@@H]1O [malonylgenistin, 6″-O-malonylgenistin]
